# System: J774A.1 cells
# Assay: Viability of J774A.1 cells after thin-film freeze-drying (TFFD), trypan blue stain
# Assay type: cell-based, murine
# Description: Excipients that were used for their ability to preserve the cells includes disaccharide such as Trehalose, antioxidants such as EGCG, D-α-tocopherol succinate, D-α-tocopherol PEG1000 succinate, Trolox, glutathione, and L-ascorbic acid, polymers such as PVP-40, P-188, dextrin, dextran, and HSA. An equivalent volume of the above-mentioned excipients in complete DMEM or Dulbecco phosphate buffered saline (DPBS) was mixed with cells at final cell concentration of 2.5×10^6 cells/ml for J774A.1 macrophages or 1.0×10^6 cells/mL for THP-1 cells. Cells mixed with trehalose and antioxidant were incubated at 37° C. in 5% CO2 incubator. Polymers and proteins were added to the cells without incubation. The TFF technique was applied to the cell suspension by dropping them as droplets of 3.6-3.8 mm in diameter, 200 μl in 7-8 drops, from a distance of 1-10 cm onto the surface of a cryogenically cooled glass (˜−80° C. achieved using dry ice), which were then stored in −80° C. for 1 h until the lyophilization process. The lyophilizer shelf temperature was set at −35° C., with vacuum pressure at 100 mTorr for 12 h. To measure the viability of the cells after TFFD, the powders were resuspended in DMEM media or DPBS, and cell viability was assessed after trypan blue stain (0.4%, Gibco, Grand Island, NY) using a TC20 Bio-Rad automatic cell counter (Hercules, CA).
SMILES,effect on J774A.1 cell viability after TFFD (antioxidant at 800 μg/ml),effect on J774A.1 cell viability after TFFD (antioxidant at 500 µM)
Cc1c(C)c2c(c(C)c1OC(=O)CCC(=O)O)CC[C@@](C)(CCC[C@H](C)CCC[C@H](C)CCCC(C)C)O2 [D-α-tocopherol succinate],helped improve the viability,–
Cc1c(C)c2c(c(C)c1O)CCC(C)(C(=O)O)O2 (centres unmarked) [Trolox],–,helped improve the viability

# — US20250242006A1, “DRY POWDER COMPOSITIONS COMPRISING EUKARYOTIC CELLS AND METHOD OF THEIR MANUFACTURE AND USE” (BOARD OF REGENTS, THE UNIVERSITY OF TEXAS SYSTEM, priority 2021, published 2025)
